Assay results taken from patent US4147767A, “Albumin medicament carrier system” (priority 1977, dated 1979).

Tested on: L-676 mouse embryo fibroblasts
Assay: Mouse L-Cell growth inhibition test
Type: cell-based
Settings: 72 hours
Description: L-676 mouse embryo fibroblasts were grown and maintained in liquid shake cultures of Swims-67G medium fortified by the addition of 5% fetal calf serum and supplemented with 1%, 200 millimolar glutamine.
Free drugs (without a carrier) used as controls were solubilized in either sterile distilled water or acetone and then added to the growth medium.
Drug containing HSA spherules were resuspended in growth medium. A sonifying water bath was employed to aid in suspension.
A 10% (v/v) inoculum of L-cells was employed in a final volume of 20 ml of growth medium containing suspended drug-containing microspheres or free control drug. […] All tests were performed in duplicate.

Row | SMILES | % L-Cell Inhibition (50 micrograms drug/ml) [%] | % L-Cell Inhibition (1 microgram drug/ml) [%] | % L-Cell Inhibition (10 micrograms drug/ml) [%] | % L-Cell Inhibition (25.0 μg drug/ml) [%] | % L-Cell Inhibition (100 micrograms drug/ml) [%]
1 | Sc1ncnc2nc[nH]c12 [6-Mercaptopurine] | 94 |  |  |  | 
2 | Nc1nc2nc[nH]c2c(=S)[nH]1 [6-Thioguanine] | 92 | 65 | 88 |  | 
3 | CS(=O)(=O)OCCCCOS(C)(=O)=O [Busulfan] |  |  |  | 69 | 
4 | O=C(O)CCCc1ccc(N(CCCl)CCCl)cc1 [Chlorambucil] | 97 | 0 | 68 |  | 
5 | COc1cc2c(c(OC)c1OC)-c1ccc(OC)c(=O)cc1[C@@H](NC(C)=O)CC2 [Colchicine] |  | 91 | 99 |  | 
6 | CC(=O)OCC(=O)[C@@]1(O)CC[C@H]2[C@@H]3CCC4=CC(=O)CC[C@]4(C)[C@H]3[C@@H](O)C[C@@]21C [Hydrocortisone Acetate] | 73 | 0 | 0 |  | 88
7 | NC(=O)NO [Hydroxyurea] |  | 0 | 22 |  | 
8 | O=c1[nH]cc(F)c(=O)[nH]1 [Pure 5-fluorouracil, 5-fluorouracil] | 93 | 67 | 88 |  | 93
